Laboratory results taken from patent US20110150817A1, “FRESHENING COMPOSITIONS COMPRISING MALODOR BINDING POLYMERS AND MALODOR CONTROL COMPONENTS” (priority 2009, published 2011).
Like-named read-outs stand apart in the source and are kept apart here.

Experiments:
[1] = Effect of volatile aldehydes on sulfur-based malodor (headspace GC/MS); conditions: 30 minutes at room temperature, 1 μL aldehyde in 10 mL headspace vial
Protocol: A 1 μL sample of each volatile aldehyde listed in Table 6 and each Accord (A, B, and C) listed in Tables 1 to 3 is pipeted into individual 10 mL silanized headspace vials. […] Repeat 4 times for each sample (2 for butylamine analysis and 2 for butanethiol analysis). […]

[2] = Effect of volatile aldehydes on amine-based malodor (headspace GC/MS); conditions: 1 μL aldehyde in 10 mL headspace vial
Protocol: A 1 μL sample of each volatile aldehyde listed in Table 6 and each Accord (A, B, and C) listed in Tables 1 to 3 is pipeted into individual 10 mL silanized headspace vials. […] Repeat 4 times for each sample (2 for butylamine analysis and 2 for butanethiol analysis).
For amine analysis, the samples are injected immediately into the system after the malodor is introduced.

Vapor pressure at 25° C. = type: physicochemical
Protocol: Suitable acid catalysts have a VP, as reported by Scifinder, in the range of about 0.001 torr to about 38 torr, measured at 25° C., alternatively about 0.001 torr to about 14 torr, alternatively from about 0.001 to about 1, alternatively from about 0.001 to about 0.020, alternatively about 0.005 to about 0.020, alternatively about 0.010 to about 0.020.

[3] = acid catalysts, as reported by Scifinder; cited from earlier work

Compound | At least 20% butanethiol reduction at 30 minutes? [1] | At least 20% butylamine reduction at 40 seconds? [2] | VP (torr) @25° C. (Vapor pressure at 25° C.; Table 1, materials of Accord A) | VP (torr) @25° C. (Vapor pressure at 25° C.; Table 2, materials of Accord B) | VP (torr) @25° C. (Vapor pressure at 25° C.; Table 3, materials of Accord C) | VP (torr) @25° C. [3]
C=CC(C)CCC=C(C)CCC=O (centres unmarked) [Floral Super] | Yes | Yes | 0.030 torr | 0.030 torr | 0.030 torr | 
CC(C)=CCCC(C)CCCC(C)C=O (centres unmarked) [Adoxal, 2,6,10-Trimethyl-9-undecenal] | No | Yes |  | 0.007 torr | 0.007 torr | 
CC(C=O)Cc1ccc(C(C)(C)C)cc1 (stereo not drawn) [P.T. Bucinal, 4-tert-butyl-alpha-methyl-hydrocinnamaldehyde] | No | Yes |  |  |  | 
COc1cc(OC)c(OC)cc1C=O [2,4,5 Trimethoxy Benzaldehyde] | No | No |  |  |  | 
CCCCCCCCCC(C)C=O (centres unmarked) [Methyl Nonyl Acetaldehyde, 2-methyl-1-undecanal] | No | No |  | 0.030 torr | 0.030 torr | 
Cc1ccc(C=O)s1 [5-methyl-thiophene-carboxaldehyde] | Yes | No |  |  |  | 
CCOc1ccccc1C=O [2-ethoxy benzylaldehyde] | Yes | Yes |  |  |  | 
O=CC=Cc1ccccc1 [Cinnamic aldehyde, 3-phenyl-2-propenal] | Yes | Yes |  |  |  | 
CCCCCCCC(=O)O [Caprylic acid] |  |  |  |  |  | 0.0222 torr
CC(C)=CCCC(C)C=O (centres unmarked) [Melonal, 2,6-Dimethyl-5-Heptenal] | No | Yes |  | 0.670 torr | 0.670 torr | 
CC(C)(C)c1ccc(CCC=O)cc1 [Bourgeonal, 4-t-butylbenzenepropionaldehyde] | Yes | No |  |  | 0.004 torr | 
CC(CC=O)CCCC(C)(C)O (centres unmarked) [Hydroxycitronellal, 7-hydroxy-3,7-dimethyl octan-1-al] | No | No |  |  |  | 
CC(C=O)=Cc1ccco1 [2-methyl-3-(2-furyl)-propenal] | No | No |  |  |  | 
COc1cc(C=O)cc(OC)c1OC [3,4,5 Trimethoxy Benzaldehyde] | No | No |  |  |  | 
Cc1cc(C)cc(C(=O)O)c1 [Mesitylenic acid] |  |  |  |  |  | 0.00211 torr
CC(C=O)Cc1ccc(C(C)C)cc1 (stereo not drawn) [Cymal, Alpha-methyl-p-isopropyl phenyl propyl aldehyde] | No | Yes | 0.007 torr | 0.007 torr | 0.007 torr | 
C=CCCCCCCCCC=O [Intreleven Aldehyde, undec-10-en-1-al] |  |  | 0.060 torr | 0.060 torr | 0.060 torr | 
O=Cc1cccs1 [Thiophene Carboxaldehyde] | No | Yes |  |  |  | 
CC1=CC(C)C(C=O)CC1 (centres unmarked) [Ligustral, 2,4-dimethyl-3-cyclohexene-1-carboxaldehyde] | No | Yes |  |  |  | 
Cc1ccc(C(=O)O)s1 [5-Methyl thiophene carboxylic acid] |  |  |  |  |  | 0.019 torr
CCC(=O)OC1CC2CC1C1CC=CC21 (centres unmarked) [Frutene] |  |  |  |  | 0.020 torr | 
O=Cc1ccccc1 [Benzylaldehyde] | No | Yes |  |  |  | 
CC1(C)C2CC=C(CCC=O)C1C2 (centres unmarked) [Pino acetaldehyde] | Yes | Yes |  |  |  | 
CCCC/C=C/C=C/C=O [Trans Trans 2,4-Nonadienal] | No | Yes |  |  |  | 
O=CO [Formic Acid] |  |  |  |  |  | 36.5 torr
CCc1ccc(CC(C)(C)C=O)cc1 [Floralozone, para-ethyl-alpha,alpha-dimethyl Hydrocinnamaldehyde] | No | No |  | 0.005 torr | 0.005 torr | 

Compound | At least 20% butanethiol reduction at 30 minutes? [1] | At least 20% butylamine reduction at 40 seconds? [2] | VP (torr) @25° C. (Vapor pressure at 25° C.; Table 1, materials of Accord A) | VP (torr) @25° C. (Vapor pressure at 25° C.; Table 2, materials of Accord B) | VP (torr) @25° C. (Vapor pressure at 25° C.; Table 3, materials of Accord C) | VP (torr) @25° C. [3]
CCCCCCCCCCCC=O [Lauric aldehyde] | No | Yes |  |  |  | 
CC(C)=CCCC(C)CCOCC=O (centres unmarked) [Citronelyl Oxyacetaldehyde, Citronellyl oxyacetaldehyde] | No | No |  |  |  | 
O=C(O)c1ccccc1 [Benzoic acid] |  |  |  |  |  | 0.014 torr
COc1cc(OC)c(C=O)c(OC)c1 [2,4,6-Trimethoxy-benzylaldehyde] | No | No |  |  |  | 
CC(=O)O [Acetic Acid] |  |  |  |  |  | 13.9 torr
CC(C)(C)c1ccc(C=O)cc1 [4-tertbutyl benzylaldehyde] | No | Yes |  |  |  | 
CC(C)(O)CCCC1=CCC(C=O)CC1 (centres unmarked) [Lyral, 4-(4-hydroxy-4-methylpentyl)-3-cyclohexene-1-carboxaldehyde] | No | Yes |  |  |  | 
CC(=O)OC1CC2CC1C1CC=CC21 (centres unmarked) [Flor Acetate] |  |  |  |  | 0.060 torr | 
CC(C)c1cccc(C(C)CC=O)c1 (centres unmarked) [Florhydral, 3-(3-Isopropyl-phenyl)-butyraldehyde] | Yes | Yes | 0.008 torr | 0.008 torr | 0.008 torr | 
O=C(O)CCC(=O)O [Succinic acid] |  |  |  |  |  | 0.0165 torr
Cc1ccc(C=O)o1 [5-methyl furfural] | Yes | Yes |  |  |  | 
CC(C)(C)C(=O)O [Trimethyl Acetic Acid] |  |  |  |  |  | 0.907 torr
CCCCCC(C=O)=Cc1ccccc1 [Amyl cinnamic aldehyde, alpha-Amylcinnamic aldehyde] | No | No |  |  |  | 
COc1ccccc1C=O [o-anisaldehyde] | Yes | Yes | 0.032 torr | 0.032 torr | 0.320 torr | 
CCCCCCCCCCC=O [Undecyl aldehyde] | No | Yes |  |  |  | 
C/C=C(\C)C(=O)O [Tiglic acid] |  |  |  |  |  | 0.152 torr
COc1ccc(C=O)cc1 [p-anisaldehyde, p-methoxybenzene aldehyde] | No | Yes |  |  |  | 
CC(C)CC=C(C=O)C(C)C [2-isopropyl-5-methyl-2-hexenal] | Yes | Yes |  |  |  | 
CCCCC/C=C/CCC=O [Trans-4-decenal] | Yes | Yes |  |  |  | 
3,4-Trimethoxy-benzylaldehyde | No | No |  |  |  | 
Oc1ccccc1 [Phenol] |  |  |  |  |  | 0.610 torr
COC1CC2CC1C1CC(C=O)CC21 (centres unmarked) [Scentenal, octahydro-5-methoxy-4,7-Methano-1H-indene-2-carboxaldehyde] |  |  | 0.010 torr | 0.010 torr | 0.010 torr | 
CC(C=O)Cc1ccc2c(c1)OCO2 (stereo not drawn) [Helional, alpha-methyl-3,4-(methylenedioxy)-hydrocinnamaldehyde] | No | Yes |  |  | 0.0005 torr | 
CCCCCCCCCC=O [Decyl aldehyde] | No | Yes |  |  |  | 
C=CC(C)(O)CCC=C(C)C (centres unmarked) [Linalool] |  |  |  |  | 0.050 torr | 
